Where two headings read alike, the source gives them in different places. Where no end group is shown, it is not given here.
Assays:
Type in all cases: cell-based
[1] = tested on: eight standard bacterial strains
Protocol: (§1) The standard bacterial strains used for antimicrobial activity assays include Staphylococcus aureus ATCC (American Type Culture Collection, Manassas, VA, USA) 6538, Bacillus cereus ATCC 10876, Enterococcus faecalis ATCC 29212, Streptococcus […] 27956, Streptococcus dysgalactiae ATCC 27957, Streptococcus equi subsp. zooepidemicus ATCC 43079, Escherichia coli ATCC 25922, and Pseudomonas aeruginosa ATCC 27853. Most bacterial strains were cultured in LB medium except for E. faecalis and streptococci, which were cultivated in brain heart infusion (BHI) broth (BD Bioscience). […] Experiments were conducted in triplicate.

[2] = tested on: Streptococcus agalactiae ATCC 27956; test: microbe, parasite or virus in culture
Protocol: as §1

[3] = tested on: Escherichia coli ATCC 25922; test: microbe, parasite or virus in culture; conditions: MH broth, WST colourimetric, 1.5 × 10^5 cells/well, 37 °C 6 h + 2 h reagent, A450, triplicate
Protocol: as §1

[4] = tested on: Staphylococcus aureus ATCC 6538; test: microbe, parasite or virus in culture
Protocol: as §1

[5] = tested on: Bacillus cereus ATCC 10876; test: microbe, parasite or virus in culture
Protocol: as §1

[6] = tested on: Streptococcus equi subsp. zooepidemicus ATCC 43079; test: microbe, parasite or virus in culture
Protocol: as §1

[7] = tested on: Pseudomonas aeruginosa ATCC 27853; test: microbe, parasite or virus in culture
Protocol: as §1

[8] = tested on: Streptococcus dysgalactiae ATCC 27957; test: microbe, parasite or virus in culture
Protocol: as §1

[9] = tested on: Enterococcus faecalis ATCC 29212; test: microbe, parasite or virus in culture; conditions: ATCC 29212, 6 h
Protocol: as §1

Substance	MICs, range over all Gram-positive strains in the panel ([1]; all Gram-positive strains of the standard panel) [µg/mL]	Minimal inhibitory concentration, Streptococcus agalactiae ([2]; ATCC 27956, BHI broth, WST colourimetric, 37 °C 6 h, triplicate)	Minimal inhibitory concentration, Escherichia coli [3]	Minimal inhibitory concentration, Staphylococcus aureus ([4]; ATCC 6538, MH broth, WST colourimetric, 37 °C 6 h, triplicate)	Minimal inhibitory concentration, Bacillus cereus ([5]; ATCC 10876, MH broth, WST colourimetric, 37 °C 6 h, triplicate)	Minimal inhibitory concentration, Streptococcus equi subsp. zooepidemicus ([6]; ATCC 43079, BHI broth, WST colourimetric, 37 °C 6 h, triplicate)	Minimal inhibitory concentration, Pseudomonas aeruginosa ([7]; ATCC 27853, CAMHB, WST colourimetric, 37 °C 6 h, triplicate)	Minimal inhibitory concentration, Streptococcus dysgalactiae ([8]; ATCC 27957, BHI broth, WST colourimetric, 37 °C 6 h, triplicate)	Minimal inhibitory concentration, Streptococcus agalactiae ([2]; ATCC 27956, 6 h)	Minimal inhibitory concentration, Staphylococcus aureus ([4]; ATCC 6538, 6 h)	Minimal inhibitory concentration, Bacillus cereus ([5]; ATCC 10876, 6 h)	Minimal inhibitory concentration, Streptococcus equi subsp. zooepidemicus ([6]; ATCC 43079, 6 h)	Minimal inhibitory concentration, Pseudomonas aeruginosa ([7]; ATCC 27853, 6 h)	Minimal inhibitory concentration, Streptococcus dysgalactiae ([8]; ATCC 27957, 6 h)	Minimal inhibitory concentration, Enterococcus faecalis [9]	MICs, range over the strains against which active [1] [µM]	MICs, range over the strains against which active ([1]; only some Gram-negative and Gram-positive strains, range stated for the group of peptides) [µM]
Nisin	2 to 16	2 (0.60) μg/mL	> 64 (19.2) μg/mL	2 (0.60) μg/mL	4 (1.2) μg/mL	4 (1.2) μg/mL	> 64 (19.2) μg/mL	4 (1.2) μg/mL	–	–	–	–	–	–	–	–	–
RRRPRPPYLPRPRPPPFFPPRLPPRIPPGFPPRFP [PR-35]	–	–	–	–	–	–	–	–	> 40 (9.5) μg/mL	> 40 (9.5) μg/mL	> 40 (9.5) μg/mL	> 40 (9.5) μg/mL	> 40 (9.5) μg/mL	> 40 (9.5) μg/mL	> 40 (9.5) μg/mL	–	–
SKFFRKARKKLGKGLQKIKNVLRKY [ΔHg-CATH]	–	–	–	–	–	–	–	–	> 40 (13.2) μg/mL	> 40 (13.2) μg/mL	> 40 (13.2) μg/mL	15 (4.9) μg/mL	5 (1.7) μg/mL	15 (4.9) μg/mL	> 40 (13.2) μg/mL	0.7 to 18.8	–
TRSRWRRFIRGAGRFARRYGWRIA [ΔPb-CATH4]	–	–	–	–	–	–	–	–	> 40 (13.1) μg/mL	4 (1.3) μg/mL	> 40 (13.1) μg/mL	20 (6.6) μg/mL	11 (3.5) μg/mL	> 40 (13.1) μg/mL	> 40 (13.1) μg/mL	0.7 to 18.8	–
VKRTKRGARRGLTKVLKKIFGSIVKKAVSKGV [ΔModoCath1]	–	–	–	–	–	–	–	–	–	11 (3.2) μg/mL	–	–	2.9 µM	–	2.9 µM	–	0.7 to 18.8
VRRSKRGIKVPSFVKKVLKDVVSESIS [ΔModoCath6]	–	–	–	–	–	–	–	–	> 40 (13.2) μg/mL	> 40 (13.2) μg/mL	> 40 (13.2) μg/mL	> 40 (13.2) μg/mL	> 40 (13.2) μg/mL	> 40 (13.2) μg/mL	> 40 (13.2) μg/mL	–	–
WYQLIRTFGNLIHQKYRKLLEAYRKLRD [ΔModoCath5]	–	–	–	–	–	–	–	–	> 40 (11.0) μg/mL	6 (1.7) μg/mL	26 (7.3) μg/mL	> 40 (11.0) μg/mL	> 40 (11.0) μg/mL	> 40 (11.0) μg/mL	10 (2.8) μg/mL	–	–

Reference: PMC11566078, “Bactericidal activities and biochemical features of 16 antimicrobial peptides against bovine-mastitis causative pathogens” (Veterinary Research, 2024)
